{"source": "patent US5955616A", "about": "“Pyrrolidine derivatives having phospholipase A2 inhibitory activity” (Shionogi & Co., Ltd., priority 1995, dated 1999)", "molecular_target": "T1, cPLA2 (Homo sapiens, UniProt P47712)", "T1 sequence (P47712 1-749)": "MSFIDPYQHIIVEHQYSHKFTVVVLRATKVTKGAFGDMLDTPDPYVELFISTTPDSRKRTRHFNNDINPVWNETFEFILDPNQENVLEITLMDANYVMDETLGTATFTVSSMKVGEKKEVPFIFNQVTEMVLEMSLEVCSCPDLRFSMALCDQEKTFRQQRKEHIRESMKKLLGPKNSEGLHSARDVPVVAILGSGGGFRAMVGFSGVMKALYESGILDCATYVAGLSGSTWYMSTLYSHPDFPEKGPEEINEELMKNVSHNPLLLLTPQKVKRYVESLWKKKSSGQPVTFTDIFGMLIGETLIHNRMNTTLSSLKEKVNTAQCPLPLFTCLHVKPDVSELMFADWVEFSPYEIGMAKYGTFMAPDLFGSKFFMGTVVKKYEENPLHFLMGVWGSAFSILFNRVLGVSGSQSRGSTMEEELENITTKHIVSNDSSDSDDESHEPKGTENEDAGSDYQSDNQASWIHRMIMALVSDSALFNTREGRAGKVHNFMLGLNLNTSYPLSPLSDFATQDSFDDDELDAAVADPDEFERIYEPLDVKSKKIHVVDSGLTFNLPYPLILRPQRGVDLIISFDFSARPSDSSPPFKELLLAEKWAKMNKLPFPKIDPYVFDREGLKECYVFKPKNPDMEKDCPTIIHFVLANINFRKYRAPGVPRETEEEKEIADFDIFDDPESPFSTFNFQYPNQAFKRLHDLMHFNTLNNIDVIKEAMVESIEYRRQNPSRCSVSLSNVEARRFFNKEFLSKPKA", "experiment": "cPLA2 Inhibitory activity (release of radiolabelled fatty acid from liposomes)", "type": "biochemical", "settings": "50 mM HEPES pH 7.4, 1 mM CaCl2, 2.5 μM radio-labeled phosphatidylcholine, 15 min at 37° C; read-out: cPLA2 Inhibition Activity IC50", "protocol": "Experiment 1 cPLA2 Inhibitory activity\nThe compounds of the present invention was tested for the cPLA2 inhibitory activity by a method known in a literature (R. M. Kramer, E. F. Roberts, J. Manetta and J. E. Putnam, J. Biol. Chem., 268(8), 5268-5272 ([…])), as outlined below.\nAs a substrate, liposomes which contain 1-palmitoyl-2-[^14 C]-arachidonoyl-sn-glycero-3-phosphocholine and sn-1,2-dioleoylglycerol at the ratio of 2:1 and have treated ultrasonically were used. The substrate was added to a 50 mM HEPES buffer (pH 7.4) (200 μl) containing 1 mM CaCl2, 2 mM dithiothreitol, 150 mM NaCl, 0.1 mg/ml BSA so as to make the concentration of radio-labeled phosphatidylcholine 2.5 μM. To the solution was added a compound of the present invention in DMSO (10 μl) to obtain reaction solutions each containing the test compound at 250 μM, 50 μM, 10 μm, 2 μM, and 0.4 μM. The reaction was allowed to start by adding an enzyme (cPLA2) (4 ng) and continued for 15 min at 37° C.\nThe amount of fatty acids released by the reaction was measured on a liquid scintillation counter. Control was obtained by conducting the experiment in the same manner except that a compound of the present invention was not added. The inhibitory activity was expressed as percent (%) to the control value, which was used for the calculation of the concentration required for 50% inhibition (IC50, μM)."}
{"molecule": "COC1C[C@@H](CNC(=O)c2ccc(/C=C3\\SC(=O)NC3=O)cc2)N(S(=O)(=O)c2ccc(Cc3ccccc3)cc2)C1", "note": "(some centres unmarked) [Compound H-4]", "values": [{"measurement": "IC50", "value": 26, "unit": "µM"}]}
{"molecule": "O=C1NC(=O)C(=C(CO)c2ccc(NC(=O)[C@@H]3CC(OC(c4ccccc4)c4ccccc4)CN3C(=O)c3ccccc3)cc2)S1", "note": "(some centres unmarked) [Compound I-1]", "values": [{"measurement": "IC50", "value": 26, "unit": "µM"}]}
{"molecule": "CC(=O)N1C[C@@H](SCc2ccccc2)C[C@H]1C(=O)Nc1ccc(C=C2SC(=S)NC2=O)cc1", "note": "[Compound A-14]", "values": [{"measurement": "IC50", "value": 18, "unit": "µM"}]}
{"molecule": "CCCCCCCCCCCCCC(=O)N1C[C@@H](SC)C[C@H]1C(=O)Nc1ccc(C=C2SC(=S)NC2=O)cc1", "note": "[Compound A-19]", "values": [{"measurement": "IC50", "value": 4.3, "unit": "µM"}]}
{"molecule": "O=C1NC(=O)/C(=C/c2ccc(NC(=O)[C@@H]3C[C@H](NCc4ccccc4)CN3C(=O)Cc3ccc(Br)cc3)cc2)S1", "note": "[Compound J-1]", "values": [{"measurement": "IC50", "value": 21, "unit": "µM"}]}
{"molecule": "O=C1NC(=O)/C(=C/c2ccc(NC(=O)[C@@H]3CC(OCc4ccc(C(F)(F)F)cc4)CN3C(=O)c3ccccc3)cc2)S1", "note": "(some centres unmarked) [Compound G-4]", "values": [{"measurement": "IC50", "value": 14, "unit": "µM"}]}
{"molecule": "O=C1NC(=O)/C(=C/c2ccc(C(=O)NC[C@@H]3CC(OCc4ccc(F)cc4F)CN3S(=O)(=O)Cc3ccc(Br)cc3)cc2)S1", "note": "(some centres unmarked) [Compound H-2]", "values": [{"measurement": "IC50", "value": 8.1, "unit": "µM"}]}
{"molecule": "O=C1NC(=O)/C(=C/c2ccc(C(=O)NC[C@@H]3CC(OCc4ccc(F)cc4F)CN3S(=O)(=O)c3ccc(Cc4ccccc4)cc3)cc2)S1", "note": "(some centres unmarked) [Compound H-5]", "values": [{"measurement": "IC50", "value": 6.4, "unit": "µM"}]}
{"molecule": "O=C1NC(=O)/C(=C/c2ccc(NC(=O)[C@H]3C[C@H](SCc4ccccc4)CN3S(=O)(=O)c3ccc(-c4ccccc4)cc3)cc2)S1", "note": "[Compound M-2]", "values": [{"measurement": "IC50", "value": 15, "unit": "µM"}]}
{"molecule": "Cc1cc(C)c(COC2C[C@@H](C(=O)Nc3ccc(C=C4SC(=O)NC4=O)cc3)N(C(=O)c3ccccc3)C2)c(C)c1", "note": "(some centres unmarked) [Compound G-6]", "values": [{"measurement": "IC50", "value": 10, "unit": "µM"}]}
{"molecule": "O=C1NC(=O)/C(=C/c2ccc(C(=O)NC[C@@H]3CC(OC(c4ccccc4)c4ccccc4)CN3C(=O)c3ccccc3)cc2)S1", "note": "(some centres unmarked) [Compound H-1]", "values": [{"measurement": "IC50", "value": 6.7, "unit": "µM"}]}
{"molecule": "O=C1NC(=S)S/C1=C\\c1ccc(NC(=O)[C@@H]2C[C@H](SCc3ccccc3)CN2S(=O)(=O)c2cccc3cccnc23)cc1", "note": "[Compound A-51]", "values": [{"measurement": "IC50", "value": 6.3, "unit": "µM"}]}
{"molecule": "CS[C@H]1C[C@@H](C(=O)Nc2ccc(C=C3SC(=S)NC3=O)cc2)N(C(=O)c2ccc(C(F)(F)F)cc2)C1", "note": "[Compound A-15]", "values": [{"measurement": "IC50", "value": 15, "unit": "µM"}]}
{"molecule": "O=C1NC(=S)S/C1=C\\c1ccc(NC(=O)[C@@H]2C[C@H](SCc3ccccc3)CN2S(=O)(=O)c2ccc(N=Nc3ccccc3)cc2)cc1", "note": "[Compound A-57]", "values": [{"measurement": "IC50", "value": 4.7, "unit": "µM"}]}
{"molecule": "O=C1NC(=O)/C(=C/c2ccc(COC[C@@H]3C[C@H](SC(c4ccccc4)(c4ccccc4)c4ccccc4)CN3C(=O)CCc3ccccc3)cc2)S1", "note": "[Compound E-1]", "values": [{"measurement": "IC50", "value": 1.1, "unit": "µM"}]}
{"molecule": "O=C1NC(=O)/C(=C/c2ccc(C(=O)NC[C@@H]3C[C@H](OC(c4ccccc4)c4ccccc4)CN3C(=O)c3cccc(OCN4C(=O)c5ccccc5S4(=O)=O)c3)cc2)S1", "note": "[Compound H-12]", "values": [{"measurement": "IC50", "value": 6.2, "unit": "µM"}]}
{"molecule": "O=C1NC(=O)/C(=C/c2ccc(NC(=O)[C@@H]3C[C@@H](SCc4ccccc4)CN3S(=O)(=O)c3ccc(-c4ccccc4)cc3)cc2)S1", "note": "[Compound M-1]", "values": [{"measurement": "IC50", "value": 23, "unit": "µM"}]}
{"molecule": "CC(C)(C)[Si](C)(C)N1C(=O)C[C@H]1C(=O)N1C[C@@H](OC(c2ccccc2)c2ccccc2)C[C@H]1CNC(=O)c1ccc(/C=C2\\SC(=O)NC2=O)cc1", "note": "[Compound H-14]", "values": [{"measurement": "IC50", "value": 8.2, "unit": "µM"}]}
{"molecule": "CC(=O)Nc1nc(C)c(S(=O)(=O)N2C[C@@H](SCc3ccccc3)C[C@H]2C(=O)Nc2ccc(/C=C3\\SC(=S)NC3=O)cc2)s1", "note": "[Compound A-59]", "values": [{"measurement": "IC50", "value": 8.6, "unit": "µM"}]}
{"molecule": "CC(C)=CCC/C(C)=C/COC1C[C@@H](C(=O)Nc2ccc(/C=C3\\SC(=O)NC3=O)cc2)N(C(=O)c2ccccc2)C1", "note": "(some centres unmarked) [Compound G-1]", "values": [{"measurement": "IC50", "value": 9, "unit": "µM"}]}
{"molecule": "O=C1NC(=S)SC1=C[C@@H]1C[C@H](SCc2ccccc2)CN1S(=O)(=O)c1ccc(-c2ccccc2)cc1", "note": "[Compound F-2]", "values": [{"measurement": "IC50", "value": 10, "unit": "µM"}]}
{"molecule": "CS[C@H]1C[C@@H](C(=O)Nc2ccc(C=C3SC(=S)NC3=O)cc2)N(C(=O)CCc2ccccc2)C1", "note": "[Compound A-22]", "values": [{"measurement": "IC50", "value": 21, "unit": "µM"}]}
{"molecule": "O=C1NC(=O)/C(=C/c2ccc(S(=O)(=O)NC[C@@H]3CC(OCc4ccc(F)cc4F)CN3S(=O)(=O)c3ccc(Cc4ccccc4)cc3)cc2)S1", "note": "(some centres unmarked) [Compound H-20]", "values": [{"measurement": "IC50", "value": 6.6, "unit": "µM"}]}
